The values below come from US20240059710A1, “KRAS G12D Inhibitors” (Jacobio Pharmaceuticals Co., Ltd., priority 2020, published 2024).

In general, IC50 refers to the concentration that gives 50% inhibition.

For assay [1], the target named is T1, GDP-loaded HIS-KRAS (G12D, aa 1-169) (Homo sapiens, UniProt P01116, G12D).
T1 construct: GDP-loaded HIS-KRAS (G12D, aa 1-169)
Description: SOS1 catalyzed nucleotide exchange assay. The class given is biochemical. The note with it: SOS1 ExD, TR-FRET, 4 hours at 25° C. The method, then: 1. SOS1 Catalyzed Nucleotide Exchange Assay
GDP-loaded HIS-KRAS (G12D, aa 1-169) was pre-incubated with a compound in the presence of 10 nM GDP in a 384-well plate (Greiner) for 15 min, then purified SOS1 ExD (Flag tag, aa 564-1049), BODIPY™ FL GTP (Invitrogen) and MAb (monoclonal antibody) Anti 6HIS-Tb cryptate Gold (Cisbio) were added to the assay wells (Final concentration: 1.5 nM GDP-loaded HIS-KRAS (G12D), 5 nM GDP, 0.5 μM SOS1 ExD, 80 nM BODIPY™ FL GTP, 52.5 ng/mL MAb Anti 6HIS-Tb cryptate Gold) and incubated for 4 hours at 25° C. Wells containing same percent of DMSO served as vehicle control, and wells without KRAS served as low control. TR-FRET signals were read on Tecan Spark multimode microplate reader. The parameters were F486: Excitation 340 nm, Emission 486 nm, Lag time 100 μs, Integration time 200 μs; F515: Excitation 340 nm, Emission 515 nm, Lag time 100 μs, Integration time 200 μs. TR-FRET ratios for each individual wells were calculated by equation: TR-FRET ratio=(Signal F515/Signal F486)*10000. The percent of activation of compounds treated wells were normalized between vehicle control and low control (% Activation=(TR-FRET ratioCompound treated−TR-FRET ratioLow control)/(TR-FRET ratioVehicle control−TR-FRET ratioLow control)*100%). Then the data were analyzed either by fitting a 4-parameter logistic model or by Excel to calculate IC50 values.
(In TR-FRET formats the signal depends on donor and acceptor labels being close together.)

For assay [2], the target named is T2, GppNp-loaded HIS-KRAS (G12D, aa 1-169) / cRAF RBD (Homo sapiens, UniProt P01116, G12D).
T2 construct: GppNp-loaded HIS-KRAS (G12D, aa 1-169)
T2 sequence (P01116 1-169 isoform P01116-2 G12D): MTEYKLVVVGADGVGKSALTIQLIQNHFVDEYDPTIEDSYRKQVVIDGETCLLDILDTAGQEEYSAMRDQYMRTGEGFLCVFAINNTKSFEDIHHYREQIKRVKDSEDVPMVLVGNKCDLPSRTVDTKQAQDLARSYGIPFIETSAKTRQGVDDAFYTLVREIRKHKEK
The experiment in a line: GTP-KRAS and cRAF interaction assay. It is filed as binding. The note with it: HTRF, 2 hours at 25° C. The procedure:
2. GTP-KRAS and cRAF Interaction Assay
GppNp-loaded HIS-KRAS (G12D, aa 1-169) was pre-incubated with a compound in the presence of 200 µM GTP in a 384-well plate (Greiner) for 15 min, then cRAF RBD (GST tag, aa 50-132, CreativeBioMart), MAb Anti GST-d2 (Cisbio) and MAb Anti 6HIS-Tb cryptate Gold (Cisbio) were added to the assay wells (Final concentration: 2.0 nM GppNp-loaded HIS-KRAS (G12D), 100 μM GTP, 35 nM cRAF RBD, 1 μg/mL MAb Anti GST-d2, 52.5 ng/mL MAb Anti 6HIS-Tb cryptate Gold) and incubated for 2 hours at 25° C. Wells containing same percent of DMSO served as vehicle control, and wells without KRAS served as low control. HTRF signals were read on Tecan Spark multimode microplate reader and HTRF ratios were calculated under manufacturer's instructions. The percent of activation of compounds treated wells were normalized between vehicle control and low control (% Activation=(HTRF ratioCompound treated−HTRF ratioLow control)/(HTRF ratioVehicle control−HTRF ratioLow control)*100). Then the data were analyzed either by fitting a 4-parameter logistic model or by Excel to calculate IC50 values.

The test system of assay [3] is AGS cells expressing KRAS G12D. The experiment in a line: Phospho-ERK1/2(THR202/TYR204) HTRF assay. It is filed as cell-based. The note with it: Homo sapiens, 2 hours incubation, read-out: AGS p-ERK IC50. The procedure:
AGS cells expressing KRAS G12D were cultured in F12K medium (Gibco) containing 10% fetal bovine serum (Gibco). The AGS cells in culture medium were seeded in 96-well plates at a concentration of 40,000 cells/well and then put in a 37° C./5% CO2 cell incubator to incubate overnight. The next day, culture medium was removed and the compound diluted in assay medium (F12K, 0.1% FBS) was added in each well. After 2 hours incubation in a 37° C./5% CO2 cell incubator, the assay medium in 96-well plates was removed, then 50 μL of 1× blocking reagent-supplemented lysis buffer (Cisbio) was added and the plates were incubated at 25° C. for 45 min with shaking. 10 μL of cell lysates from the 96-well plates were transferred to a 384-well plate (Greiner) containing 2.5 μL/well HTRF® pre-mixed antibodies (Cisbio 64AERPEH). Incubate 4 hours at 25° C. and then read HTRF signals on Tecan Spark multimode microplate reader. The data were analyzed using a 4-parameter logistic model to calculate IC50 values.

The subject of the next assay is AsPC-1. Description: Cell growth inhibition assay (AsPC-1). It is filed as cell-based. The note with it: Homo sapiens, ASPC1, 144 h; AsPC-1, 6 days incubation, CellTiter-Glo. The procedure:
4. Cell Growth Inhibition Assay
AsPC-1 cultured in RPMI-1640 medium (Gibco) containing 10% fetal bovine serum (Gibco). Cells in culture medium were plated in 96-well plates at a concentration of 1000 cells/well ([…]) and allowed to attach overnight.
The next day, compounds were diluted in culture medium and added to the plates. After 6 days incubation in a 37° C./5% CO2 cell incubator, the cell viability was detected by CellTiter-Glo® Luminescent Cell Viability Assay kit (Promega). Luminescent signals were read on Tecan Spark multimode microplate reader and analyzed using a 4-parameter logistic model to calculate IC50 values.
(In general: ATP-based viability assays read luminescence as a measure of living cells.)

T1 sequence (P01116 1-169 isoform P01116-2 G12D): as above

In assay [1], `C#Cc1cccc2cc(O)cc(-c3c(Cl)cc4c(N5CC6CCC(C5)N6)nc(OCC5(CN6CCOCC6)CC5)nc4c3F)c12` (single isomer, unassigned) [Compound 35A] showed an IC50 of 651 nM.
As to `C#Cc1cccc2cc(O)cc(-c3ccc4c(N5CCNCC5CC#N)nc(OCC5(CN6CCOCC6)CC5)nc4c3F)c12` (racemic) [Compound 134], the IC50 in assay [1] came to 117 nM; in assay [2] it was 760 nM.
With `Oc1cc(-c2c(Cl)cc3c(N4CC5CCC(C4)N5)nc(OCC4(CN5CCOCC5)CC4)nc3c2F)c2c(F)cccc2c1` [Compound 53], the IC50 in assay [1] came to 57.1 nM; in assay [2], 853 nM; in assay [3], 99.6 nM.
In the case of `C#Cc1cccc2cc(O)cc(-c3ccc4c(N5[C@H]6CN[C@H](C6)[C@H]5CC#N)nc(OCC5(CN6CCOCC6)CC5)nc4c3F)c12` [Compound 128], the IC50 in assay [1] is greater than 100 nM; in assay [2] it was 519 nM.
As for `C#Cc1cccc2cc(O)cc(-c3ccc4c(N5C6CCC5CNC6)nc(OC[C@@]56CCCN5C[C@H](F)C6)nc4c3F)c12` [Compound 70], the IC50 stood at 8.43 nM in assay [1], 59.1 nM in assay [2] and 140 nM in the assay on AsPC-1.
`Oc1cc(Cl)c(C(F)(F)F)c(-c2c(Cl)cc3c(N4CC5CCC(C4)N5)nc(OC[C@@]45CCCN4C[C@H](F)C5)nc3c2F)c1` [Compound 84]: the IC50 in assay [1] worked out at 35.4 nM; in assay [2] it was 325 nM.
Consider `C#Cc1cccc2cc(O)cc(-c3c(C#N)cc4c(N5CC6CCC(C5)N6)nc(OCC5(CN6CCOCC6)CC5)nc4c3F)c12` (single isomer, unassigned) [Compound 60A], for which the IC50 in assay [1] is 766 nM; in assay [2], 7690 nM.
For `C#Cc1cccc2cc(O)cc(-c3ccc4c(N5CCNC[C@H]5C)nc(OCC5(CN6CCOCC6)CC5)nc4c3F)c12` [Compound 82], the IC50 in assay [2] was greater than 1000 nM.
Regarding `C#Cc1cccc2cc(O)cc(-c3c(SC(F)(F)F)cc4c(N5CC6CCC(C5)N6)nc(OCC5(CN6CCOCC6)CC5)nc4c3F)c12` (single isomer, unassigned) [Compound 59A], the IC50 in assay [1] is greater than 100 nM; in assay [2] it was greater than 1000 nM.
Take `C#Cc1c(F)ccc2cc(O)cc(-c3c(Cl)cc4c(N5CC6CCC(C5)N6)nc(OCC5(CN6CCOCC6)CC5)nc4c3F)c12` (single isomer, unassigned) [Compound 99A]: the IC50 amounted to 101 nM in assay [1] and 2070 nM in assay [2].
For the compound `CCc1cccc2cc(O)cc(-c3c(Cl)cc4c(N5CC6CCC(C5)N6)nc(OCC5(CN6CCOCC6)CC5)nc4c3F)c12` [Compound 36], the half-maximal inhibitory concentration (IC50) in assay [1] turned out to be 32.8 nM.
Turning to `Oc1cc(-c2ccc3c(N4CC5CCC(C4)N5)nc(OCC4(CN5CCOCC5)CC4)nc3c2F)c2cccc(F)c2c1` [Compound 50], the IC50 turned out to be 56.9 nM in assay [1], 1110 nM in assay [2] and 441 nM in assay [3].
For `C#Cc1cccc2cc(O)cc(-c3ccc4c(N5C6CNCC5C6)nc(OCC5(CN6CCOCC6)CC5)nc4c3F)c12` [Compound 56], the values for the half-inhibitory concentration (IC50) in assay [1] and in assay [2] were 146 nM and 1910 nM, respectively.
The corresponding values for `C#Cc1c(F)ccc2cccc(-c3ccc4c(N5CC6CCC(C5)N6)nc(OCC5(CN6CCOCC6)CC5)nc4c3F)c12` [Compound 93] are 93.2 nM and 2180 nM.
On to `Oc1cc(-c2c(Cl)cc3c(N4CC5CCC(C4)N5)nc(OCC4(CN5CCOCC5)CC4)nc3c2F)c2cccc(F)c2c1` [Compound 92], for which the IC50 in assay [1] is 152 nM; in assay [2] it was 3960 nM.
In the same order, the values of `C#Cc1cccc2cc(O)cc(-c3c(C)cc4c(N5CC6CCC(C5)N6)nc(OCC5(CN6CCOCC6)CC5)nc4c3F)c12` (single isomer, unassigned) [Compound 40A] are 92.1 nM and 1610 nM.
As for `C#Cc1cccc2cc(O)cc(-c3c(Cl)cc4c(N5CC6CCC(C5)N6)nc(OCC5(CN6CCOCC6)CC5)nc4c3Cl)c12` (single isomer, unassigned) [Compound 107A], the IC50 in assay [1] was 783 nM; in assay [2], greater than 10000 nM.
In the case of `C#Cc1cccc2cc(O)cc(-c3ccc4c(N5CCNC[C@H]5C)nc(OC[C@@]56CCCN5C[C@H](F)C6)nc4c3F)c12` [Compound 69], the values for the IC50 (in assay [1]; in assay [2]; in the assay with AsPC-1) were 25.1 nM, 781 nM and 1070 nM, respectively.
With `C#Cc1cccc2cc(O)cc(-c3ccc4c(N5C[C@H]6C[C@@H]5CN6)nc(OCC5(CN6CCOCC6)CC5)nc4c3F)c12` [Compound 54], the half-maximal inhibitory concentration (IC50) in assay [1] turned out to be 89.8 nM; in assay [2] it was 356 nM.
As for `C#Cc1cccc2cc(O)cc(-c3c(Cl)cc4c(N5CC6CCC(C5)N6)nc(OC[C@@]56CCCN5C[C@H](F)C6)nc4c3F)c12` (single isomer, unassigned) [Compound 72A], the figures for the IC50 in assay [1] and in assay [2] were 85.9 nM and 1480 nM, respectively.
As to `CCc1cccc2cc(O)cc(-c3c(C4CC4)cc4c(N5CC6CCC(C5)N6)nc(OCC5(CN6CCOCC6)CC5)nc4c3F)c12` [Compound 39], the concentration for half-maximal inhibition (IC50) was 322 nM in assay [1] and 1410 nM in assay [2].
For the compound `C#Cc1cccc2cc(O)cc(-c3c(F)cc4c(N5CC6CCC(C5)N6)nc(OCC5(CN6CCOCC6)CC5)nc4c3F)c12` (single isomer, unassigned) [Compound 41A], the concentration for half-maximal inhibition (IC50) in assay [1] turned out to be 120 nM; in assay [2] it was 417 nM.
Consider `C#Cc1cccc2cc(O)cc(-c3c(C4CC4)cc4c(N5CC6CCC(C5)N6)nc(OCC5(CN6CCOCC6)CC5)nc4c3F)c12` (single isomer, unassigned) [Compound 38A], for which the IC50 in assay [1] is roughly 1000 nM; in assay [2] it was 8300 nM.
Take `Oc1cc(-c2c(Cl)cc3c(N4CC5CCC(C4)N5)nc(OCC4(CN5CCOCC5)CC4)nc3c2F)c2c(Cl)cccc2c1` [Compound 37]: in assay [1], the IC50 was determined as 51.4 nM.
Regarding `C#Cc1c(F)ccc2cc(O)cc(-c3c(Cl)cc4c(N5CC6CCC(C5)N6)nc(OCC5(CN6CCOCC6)CC5)nc4c3F)c12` (single isomer, unassigned) [Compound 99B], the IC50 in assay [1] was 0.403 nM; in assay [2], 13.5 nM.
With `Oc1cc(Cl)c(C(F)(F)F)c(-c2ccc3c(N4CC5CCC(C4)N5)nc(OC[C@@]45CCCN4C[C@H](F)C5)nc3c2F)c1` [Compound 85], the IC50 was 69.1 nM in assay [1] and 2210 nM in assay [2].
